Broadly, the IC50 is the midpoint of a concentration-inhibition curve. A high value points to lower potency.

SMILES strings stand for the structures.

These results are taken from patent US20040180855A1, “Methods of treating thrombosis with reduced risk of increased bleeding times” (priority 2003, published 2004).

One assay concerns the target T1, human α-thrombin (Homo sapiens, UniProt P00734).
T1 construct: Enzymatic activity of human α-thrombin (Sigma) was measured; purchased Sigma
As to the kind of experiment: Selectivity assay thrombin. It counts as biochemical. As to conditions: Table 3.

The next assay concerns the target T2, Plasmin (Homo sapiens, UniProt P00747).
T2 construct: Plasmin (Kabi Vitrum) was measured as for thrombin; purchased Kabi Vitrum
Briefly: Selectivity assay plasmin. The format is biochemical. As to conditions: Table 3.

The subject of assay [1] is FeCl2-VT (vena cava thrombosis). Briefly: Venous thrombosis, vessel injury model (FeCl2-VT). The format is in vivo. As to conditions: rat FeCl2-VT. The procedure:
General Surgical Preparation Male Sprague Dawley rats (310 to 390 g) were anesthetized with Na-pentobarbital (50 mg/kg i.p.). The left jugular vein was cannulated with PE-50 tubing for drug administration, and the trachea was intubated with PE-205 tubing to ensure airway patency. In some animals, a carotid artery was cannulated with PE-50 tubing to obtain blood samples, and a procedure was followed as described in Schumacher et al., “Comparison of Thrombin Active-Site and Exosite Inhibitors and Heparin in Experimental Models of Arterial and Venous Thrombosis and Bleeding,” J. Pharmacol. Exp. Therap., Vol. 267 (1993), at pp. 1237-42; Schumacher et al., Effects of Antithrombotic Drugs in a Rat Model of Aspirin-Insensitive Arterial Thrombosis, Thromb Haemostasis, Vol. 69 (1993), at pp. 509-514; or Schumacher et al., Effect of a Novel Thrombin Active-Site Inhibitor on Arterial and Venous Thrombosis, Eur J Pharmacol., Vol. 259 (1994), at pp. 165-171, each of which is incorporated herein by reference. In each procedure, a small organic compound effective for inhibiting Factor XIa, as described herein, or saline vehicle, was administered i.v. as a loading infusion over 5 min plus a sustaining infusion that was maintained until the end of the procedure. Compound doses are indicated for each procedure in mg/kg plus mg/kg/hr. The volume of test article was 1 mL/kg plus 1 mL/kg/hr, except the 24 mg/kg+24 mg/kg/hr dose of compound where volume was doubled. […] Statistical Analysis In the venous and arterial thrombosis procedures, treatment effects on thrombus weight, baseline blood flow, and average blood flow during thrombosis were determined by analysis of variance with Dunnett's test for comparison to the vehicle group. […] Treatment effects on bleeding times were determined by analysis of variance with Dunnett's test for comparison to the vehicle group. Both post-treatment and pre-treatment bleeding times and the relative bleeding time increases in sec were analyzed. […]

Assay [2] deals with rat plasma (ex vivo APTT). Briefly: Ex vivo clotting time APTT. It counts as in vivo. As to conditions: for APTT Increase (X Control): average over 15-90 min. How it is done:
Ex Vivo Clotting Times Ex vivo clotting time assays were used to determine the level of anticoagulation achieved in the thrombosis and bleeding time procedures, described above. A small organic compound for inhibiting Factor XIa was administered at doses (mg/kg+mg/kg/hr) of 0.5+0.5 (n=3), 2+2 (n=4), 6+6 (n=3), 12+12 (n=3) and 24+24 (n=10). Carotid artery blood (0.6 mL drawn into 1/10 volume of 3.8% Na-citrate) was sampled before (0 min control) and at 5, 15, 30, 60 and 90 min after the start of the compound infusion. The APTT was determined in freshly prepared plasma from each sample using the standard procedure for Dade Actin FSL reagent (Baxter Healthcare Corp., Miami, Fla.). The PT was determined in some animals from the 6+6 (n=3), 12+12 (n=3) and 24+24 (n=2) dose groups using Dade Thromboplastin●C reagent.
Plasma was sampled before (0 min control) and after the infusion, at intervals of 5, 15, 30, 60 and 90 min after initiating the infusion. Average APTT increases over the 15-90 min period, an interval most applicable to thrombosis and bleeding time protocols, were calculated. Control APTT values averaged 19.9±1.3 seconds overall. The PT was unaltered as expected from in vitro results. […] The range of efficacious doses in venous and arterial thrombosis (2+2, 6+6, 12+12; mg/kg+mg/kg/hr) produced an APTT increase of about 2.8 times control.

Assay [3] relates to panel of 40 receptors and enzymes. Briefly: Panel of 40 receptors and enzymes (MDS Panlabs Pharmacology Services).

T2 sequence (P00747 581-810 limits assumed): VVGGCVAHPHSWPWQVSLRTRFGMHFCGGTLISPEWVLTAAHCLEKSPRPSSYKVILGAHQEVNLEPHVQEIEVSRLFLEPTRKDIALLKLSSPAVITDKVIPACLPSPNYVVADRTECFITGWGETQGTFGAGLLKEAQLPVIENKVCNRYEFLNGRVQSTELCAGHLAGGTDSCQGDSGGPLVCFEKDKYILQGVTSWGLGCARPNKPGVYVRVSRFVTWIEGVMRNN
T2 sequence (P00747 97-580 partner limits assumed): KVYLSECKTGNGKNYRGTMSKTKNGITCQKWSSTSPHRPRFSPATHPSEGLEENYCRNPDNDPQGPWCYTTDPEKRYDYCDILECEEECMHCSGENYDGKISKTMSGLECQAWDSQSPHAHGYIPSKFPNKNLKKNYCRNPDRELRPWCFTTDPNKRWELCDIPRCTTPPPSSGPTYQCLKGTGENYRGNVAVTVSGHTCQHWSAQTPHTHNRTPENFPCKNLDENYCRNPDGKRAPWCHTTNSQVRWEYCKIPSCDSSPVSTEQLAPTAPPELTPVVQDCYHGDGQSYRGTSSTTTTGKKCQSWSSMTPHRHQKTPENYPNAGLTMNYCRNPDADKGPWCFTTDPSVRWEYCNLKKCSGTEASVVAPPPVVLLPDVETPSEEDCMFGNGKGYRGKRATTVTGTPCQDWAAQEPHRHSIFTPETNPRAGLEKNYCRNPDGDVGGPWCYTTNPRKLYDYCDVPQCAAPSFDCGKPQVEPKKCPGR

In the case of `CC(C)(C)NC(=O)N1CCN(C(=O)N2C(=O)[C@H](CCCNC(=N)N)[C@H]2C(=O)O)CC1` [Example 4], the IC50 at human α-thrombin was found to be 10.5 µM; against Plasmin it was 1.7 µM. The “inhibition (reduction in thrombus weight)” value in assay [1] (i.v. 0.2+0.2 mg/kg+mg/kg/hr, FIG. 3) is listed as “about 38%”. Besides, the “dose dependence of thrombus weight reduction” value in assay [1] (i.v. 0.2+0.2 to 6+6 mg/kg+mg/kg/hr) is recorded as “Dose-dependent reductions”. The “reduction in thrombus weight” value in assay [1] (i.v. 6+6 mg/kg+mg/kg/hr, FIG. 3) is given as “approximately 90%”. Also, the “APTT Increase (X Control)” value in assay [2] (dose 0.5 + 0.5 mg/kg + mg/kg/hr) was determined as 1.57 ± 0.22 X Control; in assay [2] (dose 2 + 2 mg/kg + mg/kg/hr), 2.81 ± 0.21 X Control; in assay [2] (dose 6 + 6 mg/kg + mg/kg/hr), 2.73 ± 0.19 X Control; in assay [2] (dose 12 + 12 mg/kg + mg/kg/hr), 2.79 ± 0.26 X Control; in assay [2] (dose 24 + 24 mg/kg + mg/kg/hr), 3.29 ± 0.85 X Control. Also, in assay [2] (range of efficacious doses 2+2, 6+6, 12+12 mg/kg+mg/kg/hr), the APTT increase entry is reported as “about 2.8 times control”. Moreover, in assay [3], the “inhibition or enhancement of receptor and enzyme activities” value is on record as “No significant inhibition or enhancement”.
